Literature values in PMC5666773, “Human Immunodeficiency Virus Proteins Mimic Human T Cell Receptors Inducing Cross-Reactive Antibodies” (International Journal of Molecular Sciences, 2017).

Target: naturally circulating anti-insulin
Conditions: healthy human beings and cats; no clinical effect; read-out: naturally circulating anti-insulin binding

insulin
Kd: ~10 µM
